Experimental data taken from PubChem BioAssay AID1963843 (Molecular Pharmacology Branch, DTP, NCI, 2024).

Test system: 616215-338-R-J1-PDC complex spheroid viability
Test: Anticancer human tumor 616215-338-R-J1-PDC patient-derived colon adenocarcinoma cell line growth inhibition [POLQ]
Settings: for IC50: curve of first compound; for viability, T/C: stronger effect = lower value
In short: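 Complex spheroid viability model combining PDC tumour cells with endothelial (HUVEC) and MSC stromal cells. Novobiocin, ART-558 or RP6685 were tested singly and in combination with standard and investigational anticancer drugs. Each was titrated in half-log steps from near clinical Cmax, or from 10 microM where Cmax was unknown.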

[1] = second compound 0.0316 µM, first compound 0.0316 µM
[2] = second compound 0.0316 µM, first compound 0.1 µM
[3] = second compound 0.0316 µM, first compound 0.316 µM
[4] = second compound 0.0316 µM, first compound 1 µM
[5] = second compound 0.0316 µM, first compound 3.16 µM
[6] = second compound 0.0316 µM, first compound 10 µM
[7] = second compound 0.1 µM, first compound 0.0316 µM
[8] = second compound 0.1 µM, first compound 0.1 µM
[9] = second compound 0.1 µM, first compound 0.316 µM
[10] = second compound 0.1 µM, first compound 1 µM
[11] = second compound 0.1 µM, first compound 3.16 µM
[12] = second compound 0.1 µM, first compound 10 µM
[13] = second compound 0.316 µM, first compound 0.0316 µM
[14] = second compound 0.316 µM, first compound 0.1 µM
[15] = second compound 0.316 µM, first compound 0.316 µM
[16] = second compound 0.316 µM, first compound 1 µM
[17] = second compound 0.316 µM, first compound 3.16 µM
[18] = second compound 0.316 µM, first compound 10 µM
[19] = second compound 1 µM, first compound 0.0316 µM
[20] = second compound 1 µM, first compound 0.1 µM
[21] = second compound 1 µM, first compound 0.316 µM
[22] = second compound 1 µM, first compound 1 µM
[23] = second compound 1 µM, first compound 3.16 µM
[24] = second compound 1 µM, first compound 10 µM
[25] = second compound 3.16 µM, first compound 0.0316 µM
[26] = second compound 3.16 µM, first compound 0.1 µM
[27] = second compound 3.16 µM, first compound 0.316 µM
[28] = second compound 3.16 µM, first compound 1 µM
[29] = second compound 3.16 µM, first compound 3.16 µM
[30] = second compound 3.16 µM, first compound 10 µM
[31] = second compound 10 µM, first compound 0.0316 µM
[32] = second compound 10 µM, first compound 0.1 µM
[33] = second compound 10 µM, first compound 0.316 µM
[34] = second compound 10 µM, first compound 1 µM
[35] = second compound 10 µM, first compound 3.16 µM
[36] = second compound 10 µM, first compound 10 µM
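Also: spheroids exposed to compounds for one week before readout.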
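For viability, T/C in this document: percent viability relative to DMSO vehicle wells taken as 100%.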

SMILES: CC1COCCN1c1cc(C2(O)CC3CCC(C2)O3)c2cnn(-c3ccn[nH]3)c2n1 (centres undefined) + COC1C(OC(N)=O)C(O)C(Oc2ccc3c(O)c(NC(=O)c4ccc(O)c(CC=C(C)C)c4)c(=O)oc3c2C)OC1(C)C
- IC50 (second compound 0.0316 µM): 1990 nM
- IC50 (second compound 0.1 µM): 2050 nM
- IC50 (second compound 0.316 µM): 1830 nM
- IC50 (second compound 1 µM): 2040 nM
- IC50 (second compound 3.16 µM): 1290 nM
- IC50 (second compound 10 µM): 960 nM
- viability, T/C [1]: 109%
- viability, T/C [2]: 91.5%
- viability, T/C [3]: 71%
- viability, T/C [4]: 64.1%
- viability, T/C [5]: 39.5%
- viability, T/C [6]: 35.6%
- viability, T/C [7]: 102%
- viability, T/C [8]: 91.4%
- viability, T/C [9]: 72%
- viability, T/C [10]: 57.6%
- viability, T/C [11]: 46.7%
- viability, T/C [12]: 36.5%
- viability, T/C [13]: 106%
- viability, T/C [14]: 90.2%
- viability, T/C [15]: 69.4%
- viability, T/C [16]: 60.1%
- viability, T/C [17]: 42.7%
- viability, T/C [18]: 30.5%
- viability, T/C [19]: 105%
- viability, T/C [20]: 90.6%
- viability, T/C [21]: 74.3%
- viability, T/C [22]: 57.1%
- viability, T/C [23]: 47.8%
- viability, T/C [24]: 28%
- viability, T/C [25]: 99.4%
- viability, T/C [26]: 86.8%
- viability, T/C [27]: 64.5%
- viability, T/C [28]: 50.3%
- viability, T/C [29]: 46.2%
- viability, T/C [30]: 21.6%
- viability, T/C [31]: 100%
- viability, T/C [32]: 79.3%
- viability, T/C [33]: 57.4%
- viability, T/C [34]: 53.2%
- viability, T/C [35]: 40.5%
- viability, T/C [36]: 25.2%

SMILES: O=C(Nc1ccc(O)c(NS(=O)(=O)c2ccc(F)cc2)c1)c1ccc(-c2ccccc2)cc1 + COC1C(OC(N)=O)C(O)C(Oc2ccc3c(O)c(NC(=O)c4ccc(O)c(CC=C(C)C)c4)c(=O)oc3c2C)OC1(C)C
- IC50 (second compound 0.0316 µM): > 10000 nM
- IC50 (second compound 0.1 µM): > 10000 nM
- IC50 (second compound 0.316 µM): > 10000 nM
- IC50 (second compound 1 µM): > 10000 nM
- IC50 (second compound 3.16 µM): > 10000 nM
- IC50 (second compound 10 µM): > 10000 nM
- viability, T/C [1]: 103%
- viability, T/C [2]: 103%
- viability, T/C [3]: 104%
- viability, T/C [4]: 109%
- viability, T/C [5]: 118%
- viability, T/C [6]: 97.8%
- viability, T/C [7]: 102%
- viability, T/C [8]: 100%
- viability, T/C [9]: 103%
- viability, T/C [10]: 95.1%
- viability, T/C [11]: 99.6%
- viability, T/C [12]: 118%
- viability, T/C [13]: 101%
- viability, T/C [14]: 98.3%
- viability, T/C [15]: 91.3%
- viability, T/C [16]: 93.8%
- viability, T/C [17]: 106%
- viability, T/C [18]: 92.2%
- viability, T/C [19]: 105%
- viability, T/C [20]: 107%
- viability, T/C [21]: 101%
- viability, T/C [22]: 116%
- viability, T/C [23]: 101%
- viability, T/C [24]: 105%
- viability, T/C [25]: 102%
- viability, T/C [26]: 105%
- viability, T/C [27]: 100%
- viability, T/C [28]: 105%
- viability, T/C [29]: 107%
- viability, T/C [30]: 93.9%
- viability, T/C [31]: 108%
- viability, T/C [32]: 100%
- viability, T/C [33]: 98.5%
- viability, T/C [34]: 103%
- viability, T/C [35]: 107%
- viability, T/C [36]: 88.8%
